According to patent publication US8048924B2, “Methods and compositions employing 4-aminophenylacetic acid compounds” (Biocon Limited, priority 2001, dated 2011):
Entries after “also recorded” stand apart in the source; their conditions may differ.

What was measured:
[1] = system: Clostridium difficile toxin A-induced colitis; test: Toxin A-induced colitis, chronic oral administration in drinking water for 5 days; assay type: in vivo, Sprague-Dawley rats; details: for potency relative to sulfasalazine for inhibiting toxin A-induced colitis: chronic oral, dose-response studies; for doses that significantly inhibited toxin A-induced colitis: chronically for 5 days in drinking water, doses tested 1-100
Description: Eighteen adult male Sprague-Dawley rats weighing 175-222 grams were divided into 3 groups each consisting of 6 animals: • 4-APAA (AA-002) 100 mg/kg orally+Toxin A (10 μg) injected into the lumen of the colon • Vehicle (DW) orally+Toxin A (10 μg) injected into the lumen of the colon • Vehicle (DW) orally
Following 5 days of 4-APAA administration in drinking water, both ketamine (67 mg/kg) and xylazine (33 mg/kg) were administered, an isolated colonic segment was surgically created, and 10 μg of Clostridium difficile toxin A was injected into the lumen of the colon. After 3 hours, the rats were euthanized and colonic inflammation was assessed by quantitating luminal fluid accumulation and myeloperoxidase (MPO) content in the colon tissue. In addition, histological evaluation of the treated colon segments was completed.
(§1) Drug Administration. In studies using chronic administration, sulfasalazine, APAZA™, and 4-APAA were administered in the drinking water at doses ranging from 0.1-100 mg/kg·d for 5 days. Sulfasalazine and APAZA™ were initially dissolved in 0.1 N NaOH at 30 times the desired final concentration and then the pH was adjusted to 8.5 with 1 N HCl and the solution was diluted 30-fold with distilled water. 4-APAA was dissolved in water. On the fifth day, the rats were fasted overnight (with access to their drinking water±sulfasalazine, APAZA™, or 4-APAA ad lib), anesthetized, and isolated colonic segments were surgically created as described below. In studies using acute administration, the rats were pretreated by injection of 4-APAA at doses of 10 or 100 μg in 200 μl of PBS (pH 7.4) into the lumen of the colonic segment using a 27 ga syringe needle. Toxin A (10 μg) in 200 μl of PBS (pH 7.4) was tested alone or injected into the lumen of the colonic segment 30 minutes after 4-APAA using a 27 ga syringe needle.
(§2) Surgery. Isolated colonic segments were created in male Sprague-Dawley rats (150-175 g) as described previously for isolated ileal segments (see, Gastroenterol. 111: 1272-1280 (1996) and Proc. Natl. Acad. Sci. USA 91: 947-951 (1994). Rats fasted overnight with free access to drinking water were anesthetized by intramuscular injection of 67 mg/kg ketamine:33 mg/kg xylazine. A midline abdominal incision was made and colonic segments 5 cm in length were created by ligation with 4-0 silk sutures, taking care not to disturb the vascular supply. Toxin A (10 μg) in 400 μl of PBS (pH 7.4) was injected into the lumen of the colonic segment using a 27 ga syringe needle. Control rats were prepared similarly and their colonic segments were injected with the vehicles. The midline incision was then closed with a running suture, and the rats were placed on a heating pad at 37° C. for 3 hours. After 3 hours, the rats were euthanized and samples of the treated colonic segments were taken for analysis in vitro.
(§3) Histopathology. The severity of colonic histological damage was assessed using formalin-fixed, paraffin-embedded, H&E-stained sections.
(§4) Luminal Fluid Accumulation. Luminal fluid accumulation was measured gravimetrically. After 3 hours of treatment, the isolated colonic segments were removed, weighed, and their lengths were measured. Luminal fluid accumulation is expressed as mg wet weight per cm length.
Myeloperoxidase Activity. Myeloperoxidase (MPO) activity was measured as described previously (see, J. Invest. Dermatol. 78: 206-209 (1982)). Briefly, pieces of control and treated colonic segments were homogenized in 0.5% hexadecyltrimethylammonium bromide in 50 mM KH2PO4 (pH 6), freeze/thawed three times, centrifuged at 4° C. for 2 minutes, and then the absorbance of each supernatant was read at 460 nm at 0, 30, and 60 seconds after the addition of 2.9 ml of o-dianisidine dihydrochloride to 0.1 ml supernatant. The maximal change in absorbance per minute was used to calculate the units of MPO activity based on the molar absorbency index of oxidized o-dianisidine of 1.13×10^4 M^−1 cm^−1. […]

[2] = system: Clostridium difficile toxin A-induced colitis; test: Toxin A-induced colitis, acute intraluminal pretreatment of isolated colonic segment; assay type: in vivo, Sprague-Dawley rats; details: for toxin A-induced structural damage of the colon (H&E) / percent inhibition of toxin A-induced MPO activity / percent inhibition of toxin A-induced luminal fluid accumulation: 30 minutes before toxin A; for relative potency and interaction for inhibition of acute toxin A-induced colitis: given alone versus together
Description: as §1, §2, §3, §4
Myeloperoxidase Activity. Myeloperoxidase (MPO) activity was measured as described previously (see, J. Invest. Dermatol. 78: 206-209 (1982)). Briefly, pieces of control and treated colonic segments were homogenized in 0.5% hexadecyltrimethylammonium bromide in 50 mM KH2PO4 (pH 6), freeze/thawed three times, centrifuged at 4° C. for 2 minutes, and then the absorbance of each supernatant was read at 460 nm at 0, 30, and 60 seconds after the addition of 2.9 ml of o-dianisidine dihydrochloride to 0.1 ml supernatant. The maximal change in absorbance per minute was used to calculate the units of MPO activity based on the molar absorbency index of oxidized o-dianisidine of 1.13×10^4 M^−1 cm^−1. The results are expressed as MPO units of activity per mg of tissue wet weight.
Adult male Sprague-Dawley rats (175-225 grams body weight) were purchased from Charles River Labs (Raleigh, N.C.). 4-APAA and 5-ASA were separately injected into the lumen of an isolated segment of the rat colon at doses of 0.01, 0.1, 1, and 10 μg (in volumes of 200 μl) 30 minutes prior to injection of 10 μg of Clostridium difficile toxin A. In a follow-up study, a combined dose of 10 ng (0.01 μg) each of 4-APAA and 5-ASA was injected prior to toxin A.
[…] Colonic inflammation was assessed by quantitating luminal fluid accumulation and myeloperoxidase content in the colonic segment tissue, and by examination of colonic structural damage using hematoxylin & eosin-stained sections of the treated colonic segment.
Surgery. […]

[3] = 0.5 mg/kg·day in drinking water, 5 days
[4] = 1 mg/kg·day in drinking water, 5 days
[5] = 10 mg/kg·day in drinking water, 5 days
[6] = 100 mg/kg·day in drinking water, 5 days
[7] = 0.01 μg (10 ng) each, intraluminal
[8] = 100 mg/kg·day in drinking water, 5 days, toxin A 10 μg

Structure (SMILES)	toxin A-induced MPO activity, significance of inhibition [1, 6]	toxin A-induced luminal fluid accumulation, significance of inhibition [1, 6]	toxin A-induced structural damage of the colon (H&E) [1, 6]	doses that significantly inhibited toxin A-induced colitis [1]	toxin A-induced MPO activity, significance of inhibition [2, 7]	toxin A-induced luminal fluid accumulation, significance of inhibition [2, 7]	toxin A-induced structural damage of the colon (H&E) [2, 7]	toxin A-induced luminal fluid accumulation, significance of inhibition ([2]; 0.1 μg intraluminal)	toxin A-induced structural damage of the colon (H&E) ([2]; 0.1 μg intraluminal)	toxin A-induced MPO activity, significance of inhibition ([2]; 1.0 μg intraluminal)	toxin A-induced luminal fluid accumulation, significance of inhibition ([2]; 1.0 μg intraluminal)	toxin A-induced structural damage of the colon (H&E) ([2]; 1.0 μg intraluminal)	toxin A-induced MPO activity, significance of inhibition ([2]; 10 μg intraluminal)	toxin A-induced luminal fluid accumulation, significance of inhibition ([2]; 10 μg intraluminal)	toxin A-induced structural damage of the colon (H&E) ([2]; 10 μg intraluminal)	relative potency and interaction for inhibition of acute toxin A-induced colitis [2]	further results
O=C(O)Cc1ccc(/N=N/c2ccc(O)c(C(=O)O)c2)cc1 [APAZA™, 5-(4-carboxymethyl-phenylazo)-2-hydroxy-benzoic acid]	significantly inhibited	significantly inhibited	strongly protected	1-100 mg/kg·day													toxin A-induced structural damage of the colon (H&E) ([1]; 0.1 mg/kg·day in drinking water, 5 days): little if any protective effect; toxin A-induced luminal fluid accumulation, significance of inhibition [1, 3]: significantly inhibited; toxin A-induced structural damage of the colon (H&E) [1, 3]: partially protected; toxin A-induced MPO activity, significance of inhibition [1, 4]: significantly inhibited; toxin A-induced luminal fluid accumulation, significance of inhibition [1, 4]: significantly inhibited; toxin A-induced structural damage of the colon (H&E) [1, 4]: strongly protected; toxin A-induced MPO activity, significance of inhibition [1, 5]: significantly inhibited; toxin A-induced luminal fluid accumulation, significance of inhibition [1, 5]: significantly inhibited; toxin A-induced structural damage of the colon (H&E) [1, 5]: strongly protected; potency relative to sulfasalazine for inhibiting toxin A-induced colitis [1]: 10-20 fold; potency relative to sulfasalazine for inhibiting toxin A-induced colitis ([1]; listed as APAZA™ compound): 10-100 fold
Nc1ccc(O)c(C(=O)O)c1 [5-ASA, 5-amino-2-hydroxy-benzoic acid, reference compound]					not significantly inhibited	significantly inhibited	did not prevent	significantly inhibited	partially preserved surface ulceration	significantly inhibited	significantly inhibited	mucosal folding was also largely preserved	significantly inhibited	significantly inhibited	virtually completely protected	approximately equipotent	
Nc1ccc(CC(=O)O)cc1 [4-APAA, (4-aminophenyl)-acetic acid]	significantly inhibited	significantly inhibited	protected the structural integrity; also recorded: strongly protected	100 mg/kg·day	not significantly inhibited	significantly inhibited	did not prevent	significantly inhibited	preserved mucosal folding	significantly inhibited	significantly inhibited	preserved mucosal folding	significantly inhibited	significantly inhibited	strongly protected; also recorded: virtually completely protected	approximately equipotent	percent inhibition of toxin A-induced MPO activity [1, 8]: 89±8%; percent inhibition of toxin A-induced luminal fluid accumulation [1, 8]: 84±6%; percent inhibition of toxin A-induced MPO activity ([2]; 10 μg intraluminal): 91±8%; percent inhibition of toxin A-induced luminal fluid accumulation ([2]; 10 μg intraluminal): 52±4%; percent inhibition of toxin A-induced MPO activity ([2]; 100 μg intraluminal): 89±10%; percent inhibition of toxin A-induced luminal fluid accumulation ([2]; 100 μg intraluminal): 80±5%; toxin A-induced structural damage of the colon (H&E) ([2]; 100 μg intraluminal): strongly protected; lowest dose that strongly inhibited toxin A-induced colitis in this experiment ([2]; intraluminal injection 30 minutes before toxin A, 10 and 100 μg tested): 10 μg/segment
